Laboratory results: patent US6407103B2, “Indeno [1,2-c] pyrazol-4-ones and their uses” (Bristol-Myers Squibb Pharma Company, priority 1998, dated 2002)

melting point: 228 °C
Compound: COc1ccc(-c2[nH]nc3c2C(=O)c2c(NC(=O)Cc4ccc(NC(=O)CN)cc4)cccc2-3)cc1 [Example XXXVIII, 3-(4-methoxyphenyl)-5-((4-(aminomethylcarbonylamino)phenyl)acetamido) indeno[1,2-c]pyrazol-4-one]
